Consider six compounds from ChEMBL document CHEMBL5442219.

Common to all, as to conditions: Compound concentration 10 µM
Experiment [1] has as its target T1, Alpha-1B adrenergic receptor (Homo sapiens) (UniProt P35368).
T1 sequence (whole entry): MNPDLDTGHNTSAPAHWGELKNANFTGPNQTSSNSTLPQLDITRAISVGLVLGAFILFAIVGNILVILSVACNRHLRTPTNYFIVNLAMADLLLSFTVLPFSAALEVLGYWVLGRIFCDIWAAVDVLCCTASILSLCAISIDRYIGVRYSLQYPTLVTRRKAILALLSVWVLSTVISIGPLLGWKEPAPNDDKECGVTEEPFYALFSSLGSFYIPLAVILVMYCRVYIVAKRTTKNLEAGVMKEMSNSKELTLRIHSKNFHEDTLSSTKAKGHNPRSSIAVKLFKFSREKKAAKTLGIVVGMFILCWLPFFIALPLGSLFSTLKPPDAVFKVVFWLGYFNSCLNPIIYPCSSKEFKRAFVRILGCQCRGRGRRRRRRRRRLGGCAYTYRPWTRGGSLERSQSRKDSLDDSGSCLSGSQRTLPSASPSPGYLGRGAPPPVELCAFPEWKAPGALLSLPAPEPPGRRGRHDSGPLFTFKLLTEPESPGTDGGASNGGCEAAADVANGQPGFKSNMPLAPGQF
Description: PDSP Primary Binding target: ADRA1B - Compounds are tested at 10 uM concentration, plate are incubated at room temperature in the dark for 90 minutes. Reaction are stopped by vacuum filtration onto 0.3% polyethyleneimine soaked filter mats using Filtermate harvester. Scintilation cocktail is then melted onto microwave-dried filters on a hot plate and the radio activity is counted in Microbia counter.

The target in experiment [2] is T2, Muscarinic acetylcholine receptor M1 (Homo sapiens) (UniProt P11229).
T2 sequence (whole entry): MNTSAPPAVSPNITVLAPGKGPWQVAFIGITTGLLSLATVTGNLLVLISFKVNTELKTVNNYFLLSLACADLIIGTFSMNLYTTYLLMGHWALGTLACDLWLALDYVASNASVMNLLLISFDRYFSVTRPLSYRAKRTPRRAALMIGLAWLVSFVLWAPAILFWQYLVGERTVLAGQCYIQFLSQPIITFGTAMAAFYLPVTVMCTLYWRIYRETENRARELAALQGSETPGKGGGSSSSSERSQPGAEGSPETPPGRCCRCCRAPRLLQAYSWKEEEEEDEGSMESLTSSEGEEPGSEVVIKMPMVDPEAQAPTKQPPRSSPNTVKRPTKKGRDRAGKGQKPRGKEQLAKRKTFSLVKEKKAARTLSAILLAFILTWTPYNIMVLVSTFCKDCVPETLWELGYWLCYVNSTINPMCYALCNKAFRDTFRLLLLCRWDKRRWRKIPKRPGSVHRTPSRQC
Description: PDSP Primary Binding target: CHRM1 - Compounds are tested at 10 uM concentration, plate are incubated at room temperature in the dark for 90 minutes. Reaction are stopped by vacuum filtration onto 0.3% polyethyleneimine soaked filter mats using Filtermate harvester. Scintilation cocktail is then melted onto microwave-dried filters on a hot plate and the radio activity is counted in Microbia counter.

Experiment [3] deals with T3, Alpha-2A adrenergic receptor (Homo sapiens) (UniProt P08913).
T3 sequence (whole entry): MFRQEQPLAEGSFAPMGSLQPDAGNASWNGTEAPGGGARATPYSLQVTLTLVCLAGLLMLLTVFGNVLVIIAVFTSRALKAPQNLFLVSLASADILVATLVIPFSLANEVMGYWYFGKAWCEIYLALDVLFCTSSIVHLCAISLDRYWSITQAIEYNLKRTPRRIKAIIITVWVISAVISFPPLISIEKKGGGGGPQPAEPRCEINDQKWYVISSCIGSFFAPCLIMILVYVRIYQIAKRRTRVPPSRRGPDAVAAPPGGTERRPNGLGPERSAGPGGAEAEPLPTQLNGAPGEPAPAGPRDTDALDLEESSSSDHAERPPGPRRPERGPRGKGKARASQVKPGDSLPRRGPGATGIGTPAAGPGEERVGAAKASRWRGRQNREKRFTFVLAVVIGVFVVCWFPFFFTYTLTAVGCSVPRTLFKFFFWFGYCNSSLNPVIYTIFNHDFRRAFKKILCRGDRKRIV
Description: PDSP Primary Binding target: ADRA2A - Compounds are tested at 10 uM concentration, plate are incubated at room temperature in the dark for 90 minutes. Reaction are stopped by vacuum filtration onto 0.3% polyethyleneimine soaked filter mats using Filtermate harvester. Scintilation cocktail is then melted onto microwave-dried filters on a hot plate and the radio activity is counted in Microbia counter.

In experiment [4] the target is 5-hydroxytryptamine receptor 1D (Homo sapiens) (UniProt P28221).
Description: PDSP Primary Binding target: HTR1D - Compounds are tested at 10 uM concentration, plate are incubated at room temperature in the dark for 90 minutes. Reaction are stopped by vacuum filtration onto 0.3% polyethyleneimine soaked filter mats using Filtermate harvester. Scintilation cocktail is then melted onto microwave-dried filters on a hot plate and the radio activity is counted in Microbia counter.
In experiment [5] the target is T4, Muscarinic acetylcholine receptor M5 (Homo sapiens) (UniProt P08912).
T4 sequence (whole entry): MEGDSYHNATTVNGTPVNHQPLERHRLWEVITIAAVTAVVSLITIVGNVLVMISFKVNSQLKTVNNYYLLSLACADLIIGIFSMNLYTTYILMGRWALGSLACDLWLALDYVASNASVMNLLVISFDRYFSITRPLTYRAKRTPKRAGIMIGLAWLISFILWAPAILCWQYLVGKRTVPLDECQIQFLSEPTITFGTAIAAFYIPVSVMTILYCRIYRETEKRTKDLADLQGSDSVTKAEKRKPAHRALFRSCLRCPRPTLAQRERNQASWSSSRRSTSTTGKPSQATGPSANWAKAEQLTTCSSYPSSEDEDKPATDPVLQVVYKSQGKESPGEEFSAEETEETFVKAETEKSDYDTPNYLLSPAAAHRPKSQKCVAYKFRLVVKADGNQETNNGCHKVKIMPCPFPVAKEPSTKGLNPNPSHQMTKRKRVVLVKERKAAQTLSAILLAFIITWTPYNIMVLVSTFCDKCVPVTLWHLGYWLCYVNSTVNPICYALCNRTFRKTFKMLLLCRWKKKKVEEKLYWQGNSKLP
Description: PDSP Primary Binding target: CHRM5 - Compounds are tested at 10 uM concentration, plate are incubated at room temperature in the dark for 90 minutes. Reaction are stopped by vacuum filtration onto 0.3% polyethyleneimine soaked filter mats using Filtermate harvester. Scintilation cocktail is then melted onto microwave-dried filters on a hot plate and the radio activity is counted in Microbia counter.

Experiment [6] concerns the target T5, 5-hydroxytryptamine receptor 2C (Homo sapiens) (UniProt P28335).
T5 sequence (whole entry): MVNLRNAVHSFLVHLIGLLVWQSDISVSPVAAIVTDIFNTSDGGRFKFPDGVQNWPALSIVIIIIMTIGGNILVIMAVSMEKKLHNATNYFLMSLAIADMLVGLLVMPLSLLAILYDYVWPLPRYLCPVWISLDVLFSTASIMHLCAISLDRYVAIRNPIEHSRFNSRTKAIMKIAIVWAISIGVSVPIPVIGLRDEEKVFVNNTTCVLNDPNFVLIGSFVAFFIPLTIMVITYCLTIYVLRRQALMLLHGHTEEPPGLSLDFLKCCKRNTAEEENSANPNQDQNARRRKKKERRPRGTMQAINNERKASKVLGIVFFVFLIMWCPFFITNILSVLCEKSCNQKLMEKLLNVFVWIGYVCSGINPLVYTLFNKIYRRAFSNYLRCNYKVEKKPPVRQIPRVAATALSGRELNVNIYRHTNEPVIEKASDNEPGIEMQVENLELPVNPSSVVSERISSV
Description: PDSP Primary Binding target: HTR2C - Compounds are tested at 10 uM concentration, plate are incubated at room temperature in the dark for 90 minutes. Reaction are stopped by vacuum filtration onto 0.3% polyethyleneimine soaked filter mats using Filtermate harvester. Scintilation cocktail is then melted onto microwave-dried filters on a hot plate and the radio activity is counted in Microbia counter.

For experiment [7], the target named is Beta-3 adrenergic receptor (Homo sapiens) (UniProt P13945).
Description: PDSP Primary Binding target: ADRB3 - Compounds are tested at 10 uM concentration, plate are incubated at room temperature in the dark for 90 minutes. Reaction are stopped by vacuum filtration onto 0.3% polyethyleneimine soaked filter mats using Filtermate harvester. Scintilation cocktail is then melted onto microwave-dried filters on a hot plate and the radio activity is counted in Microbia counter.
Experiment [8] addresses Histamine H2 receptor (Homo sapiens) (UniProt P25021).
Description: PDSP Primary Binding target: HRH2 - Compounds are tested at 10 uM concentration, plate are incubated at room temperature in the dark for 90 minutes. Reaction are stopped by vacuum filtration onto 0.3% polyethyleneimine soaked filter mats using Filtermate harvester. Scintilation cocktail is then melted onto microwave-dried filters on a hot plate and the radio activity is counted in Microbia counter.
In experiment [9] the target is Mu-type opioid receptor (Homo sapiens) (UniProt P35372).
Description: PDSP Primary Binding target: OPRM1 - Compounds are tested at 10 uM concentration, plate are incubated at room temperature in the dark for 90 minutes. Reaction are stopped by vacuum filtration onto 0.3% polyethyleneimine soaked filter mats using Filtermate harvester. Scintilation cocktail is then melted onto microwave-dried filters on a hot plate and the radio activity is counted in Microbia counter.

Structures are written as SMILES.

5-hydroxytryptamine receptor 1D (Homo sapiens), sequence (P28221 whole entry): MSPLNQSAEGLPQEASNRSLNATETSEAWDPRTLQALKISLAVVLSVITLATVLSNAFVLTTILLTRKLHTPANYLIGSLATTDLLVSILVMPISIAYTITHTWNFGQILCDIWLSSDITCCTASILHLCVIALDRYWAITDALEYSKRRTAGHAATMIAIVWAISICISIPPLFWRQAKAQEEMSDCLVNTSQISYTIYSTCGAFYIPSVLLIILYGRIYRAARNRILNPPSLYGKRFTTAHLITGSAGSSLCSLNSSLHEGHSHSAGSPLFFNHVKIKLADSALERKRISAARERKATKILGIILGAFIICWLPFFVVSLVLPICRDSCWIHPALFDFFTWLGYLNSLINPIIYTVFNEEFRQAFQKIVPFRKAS
Mu-type opioid receptor (Homo sapiens), sequence (P35372 whole entry): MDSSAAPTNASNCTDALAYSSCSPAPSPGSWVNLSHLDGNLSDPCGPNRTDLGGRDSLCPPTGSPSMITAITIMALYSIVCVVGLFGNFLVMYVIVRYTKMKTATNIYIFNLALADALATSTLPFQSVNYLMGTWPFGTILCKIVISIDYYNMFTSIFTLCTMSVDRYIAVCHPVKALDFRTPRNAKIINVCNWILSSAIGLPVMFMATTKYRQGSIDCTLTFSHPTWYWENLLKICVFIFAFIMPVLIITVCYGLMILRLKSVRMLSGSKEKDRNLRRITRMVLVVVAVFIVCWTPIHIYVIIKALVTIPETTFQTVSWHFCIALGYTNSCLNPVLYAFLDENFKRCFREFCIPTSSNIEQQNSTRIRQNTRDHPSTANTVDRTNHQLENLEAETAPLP
Histamine H2 receptor (Homo sapiens), sequence (P25021 whole entry): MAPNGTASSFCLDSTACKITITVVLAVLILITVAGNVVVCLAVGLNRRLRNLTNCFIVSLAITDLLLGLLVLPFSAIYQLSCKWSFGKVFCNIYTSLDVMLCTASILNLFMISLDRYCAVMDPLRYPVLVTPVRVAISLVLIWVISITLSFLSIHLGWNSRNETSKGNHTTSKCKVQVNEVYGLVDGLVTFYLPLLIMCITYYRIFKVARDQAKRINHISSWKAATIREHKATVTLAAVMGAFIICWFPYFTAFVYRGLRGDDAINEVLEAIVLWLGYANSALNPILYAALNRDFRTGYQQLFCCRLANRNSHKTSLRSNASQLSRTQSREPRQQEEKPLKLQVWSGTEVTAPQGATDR
Beta-3 adrenergic receptor (Homo sapiens), sequence (P13945 whole entry, looked up): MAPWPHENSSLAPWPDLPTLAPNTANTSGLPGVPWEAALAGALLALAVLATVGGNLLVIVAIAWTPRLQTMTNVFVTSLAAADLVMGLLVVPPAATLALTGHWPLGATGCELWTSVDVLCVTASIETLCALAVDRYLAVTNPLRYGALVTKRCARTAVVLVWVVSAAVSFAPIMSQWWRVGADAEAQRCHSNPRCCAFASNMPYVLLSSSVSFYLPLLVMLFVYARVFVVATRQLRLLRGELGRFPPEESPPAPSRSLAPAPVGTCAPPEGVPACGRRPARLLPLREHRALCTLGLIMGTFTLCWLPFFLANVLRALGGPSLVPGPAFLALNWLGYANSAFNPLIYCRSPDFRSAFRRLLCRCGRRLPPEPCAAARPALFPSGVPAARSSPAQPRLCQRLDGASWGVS

As a reminder, the inhibition is the change of the read-out against control, counted positive when it falls. For `CS(=O)(=O)NC[C@H]1CC[C@H](Nc2nc3c(s2)CCSc2ccccc2-3)CC1`, the inhibition in experiment [1] was -8.21%; in [2], -1.96%; in experiment [3] it was 0.86%; in experiment [4], 50.8%; in experiment [5], -4.92%; in [6] it was 0.89%. For the same compound, the inhibition in [7] is 45.4%; in experiment [8], -2.3%; in experiment [9] it was -6.3%.

Turning to `Cc1c(P(=S)(c2ccccc2)c2ccccc2)n2ccccc2[n+]1C/C=C/c1ccccc1`, the inhibition in [1] was 39.9%; in experiment [2] it was 88.2%; in experiment [3], 58.1%; in experiment [4], 40.5%; in experiment [5] it was 89%; in experiment [6], 25.7%. In addition, the inhibition was 68.2% in experiment [7], 76.4% in [8] and 87.3% in experiment [9].

For the compound `CNc1nc(NCc2ccc(NS(C)(=O)=O)cc2Cl)cc(-c2ccccn2)n1`, the inhibition in [1] is 26.4%; in experiment [2], 9.22%; in experiment [3], 43.2%; in [4], 0.67%; in experiment [5] it was 6.84%; in experiment [6], 55.4%. Further, the inhibition in experiment [7] was 15%; in [8], 18%; in [9], 14.5%.

Regarding `Cc1cn2cc(CC(=O)N3CCC4(CC3)CN(Cc3ccc(-n5nccn5)cc3Cl)C4)nc2s1`, the inhibition in experiment [1] is 33.4%; in experiment [2] it was 51.1%; in experiment [3], 9.33%; in experiment [4], 4.85%; in experiment [5], 71.8%; in experiment [6], -3.75%. Also, the inhibition in experiment [7] is 25.6%; in [8], 60.1%; in [9] it was 21.4%.

`Clc1ccc(CCCOCCCN2CCCCC2)cc1`: the inhibition is 5.07% in experiment [1]; 24.5% in [2]; -7.75% in [3]; 16.4% in experiment [4]; 23.1% in experiment [5]; 57% in experiment [6]. For the same compound, the figures for the inhibition in [7], in experiment [8] and in experiment [9] were 1.84%, 33% and 3.99%, respectively.

`Cc1cc(C)cc(-c2cnc3cc(Cl)c(-c4cccc(O)c4)cc3c2OCCCN)c1`: the inhibition in experiment [1] is 81.8%; in [2], 24.3%; in experiment [3], 64.9%; in experiment [4], 91.8%; in experiment [5], 3.7%; in [6], 79.8%. The results for the inhibition in [7], in experiment [8] and in [9] were 99.4%, 81.6% and 75.9%, respectively.
